Entries after “also recorded” stand apart in the source; their conditions may differ.

Test [1] concerns Gq/11. As to conditions: ref [29]; cited from earlier work. The text has this: Thus, DAG derived from Gq/11 activation is likely to drive PKC activation and subsequent inhibition of TNFα stimulated JNK activity. Previously, we have shown that Gq/11 plays a positive role in the regulation of PAR2 mediated NFκB p ...
Test [2] relates to Gq/11. Nature of the test: Reversal by Gq/11 inhibitor of PAR2 mediated inhibition of TNFα-stimulated JNK activity, PAR2 NCTC2544 cells. As to conditions: increasing concentrations YM254890 30 min, SLIGKV-OH 100 μM 30 min, TNFα 10 ng/ml 30 min. The class given is cell-based, human. Here is the method: (§1) Human skin epithelial cells NCTC2544 were maintained in M199 medium with Earl's salt supplement, 10% (v/v) foetal calf serum, L-glutamine (27 µg/ml), penicillin (250 U/ml), and streptomycin (25 mg/ml). NCTC2544 cells stably expressing human PAR2 (clone G) were maintained in complete M199 medium containing 400 μg/ml of Geneticin for selection pressure and passaged using Versene (2% EDTA/PBS). EAhy-926 cells were produced by hybridizing human umbilical vein endothelial cells (HUVECs) with the epithelial cell line A549 [27] and maintained in Dulbecco's Modified Eagle's Medium (DMEM) supplemented with 10% foetal calf serum (FCS), hypoxanthine/aminopterin/thymidine (HAT supplement), penicillin (250 U/ml) and streptomycin (25 mg/ml), and cells were passaged using Versene.
To measure JNK activity, cells were stimulated as appropriate and the reaction terminated by rapid aspiration and the addition of ice-cold PBS. […] Phosphorylation of GST-c-Jun was then determined by autoradiography. […]
(§2) Fig. 6 Gq/11 is essential for PAR2 mediated inhibition of JNK activation by TNFα. […] Samples were assessed for phospho-JNK levels (Panels A and D) or JNK activity (Panel B) as outlined in the Methods section. Gels from JNK activity assays were quantified by densitometry (Panel C). […]

The test system of test [3] is Gq/11. The test can be described thus: Reversal by Gq/11 inhibitor of PAR2 mediated inhibition of TNFα-stimulated JNK phosphorylation, PAR2 NCTC2544 cells. In kind it is cell-based, human. As to conditions: 100 nM YM254890 30 min, SLIGKV-OH 100 μM 30 min, TNFα 10 ng/ml 30 min. Here is the method:
as §1
Proteins were separated by 10% SDS–PAGE and transferred onto nitrocellulose. The membranes were blocked for non-specific binding for 2 h in 2% BSA (w/v) diluted in NATT buffer (50 mM Tris–HCl, 150 mM NaCl, 0.2% (v/v) Tween-20). The blots were then incubated overnight with 50 ng/ml primary antibody diluted in 0.2% BSA (w/v) in NATT buffer. […]
as §2

A further test has as its system TNFR1/TRADD. The test can be described thus: TNFR1/TRADD complex formation (TNFR1 immuno-precipitation, TRADD immuno-blot), PAR2 expressing cells. As to conditions: 100 nM YM254890 or 3 μM GF109203X 30 min, peptide 100 μM 30 min, TNFα 10 ng/ml 30 min. The class given is cell-based, human. How it is done: as §1
Proteins were separated by 10% SDS–PAGE and transferred onto nitrocellulose. The membranes were blocked for non-specific binding for 2 h in 2% BSA (w/v) diluted in NATT buffer (50 mM Tris–HCl, 150 mM NaCl, 0.2% (v/v) Tween-20). The blots were then incubated overnight with 50 ng/ml primary antibody diluted in 0.2% BSA (w/v) in NATT buffer. The blots were washed with NATT buffer for 90 min and incubated with HRP-conjugated secondary antibody (20 ng/ml in 0.2% BSA (w/v) diluted in NATT buffer) for 2 h. After a further 90 min wash, the blots were subjected to ECL reagent and exposed to Kodak X-ray film.
For immuno-precipitation of TNFR1, equal amounts of pre-cleared cell lysates were incubated in Tris–HCl buffer, pH 7.4, containing 50 mM NaCl, 1 mM EDTA, 1 mM EGTA, 1% (w/v) Triton X-100, and 0.5% (w/v) Nonidet P-40, with 2 μg TNFR1 antibody, pre-coupled to protein G, for 3 h. Lysates were recovered by sequential washes in solubilisation buffer and in the same buffer lacking detergents. Precipitates were assessed for TRADD or RIP content using Western blotting.
Fig. 7 PAR2 mediated TNFR1 adapter protein disruption in PAR2 expressing cells. In Panel A, cells were pre-treated with peptide (100 μM) or vehicle prior to stimulation with TNFα (10 ng/ml) for 30 min. Lysates were immuno-precipitated for TNFR1 and immuno-blotted for TRADD and/or RIP, as outlined in the Methods section. In Panel B cells were pre-treated with 100 nM YM254890 or 3 μM GF109203X for 30 min prior to pre-treatment with peptide (100 μM), for 30 min, then incubated for a further 30 min with TNFα (10 ng/ml). TNFR1 immuno-precipitates were immuno-blotted for TRADD. Each gel is representative of at least three experiments.

Test [4] deals with T1, human PAR2 (Homo sapiens, UniProt P55085).
T1 construct: expressed in transfected cells
T1 sequence (P55085 26-397): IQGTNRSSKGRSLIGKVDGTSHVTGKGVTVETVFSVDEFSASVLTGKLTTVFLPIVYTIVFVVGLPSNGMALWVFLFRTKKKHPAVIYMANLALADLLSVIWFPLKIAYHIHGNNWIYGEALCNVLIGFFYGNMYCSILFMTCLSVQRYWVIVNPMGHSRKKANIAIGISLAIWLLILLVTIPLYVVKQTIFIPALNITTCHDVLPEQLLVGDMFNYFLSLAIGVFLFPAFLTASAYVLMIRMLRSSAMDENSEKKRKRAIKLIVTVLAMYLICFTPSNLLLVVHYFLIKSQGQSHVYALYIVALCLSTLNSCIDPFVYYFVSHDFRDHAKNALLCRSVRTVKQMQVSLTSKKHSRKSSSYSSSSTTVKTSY
The test can be described thus: JNK activity, agent alone, PAR2 NCTC2544 cells (clone G). The class given is cell-based. As to conditions: higher concentrations, alone; not shown. How it is done: as §1
To measure JNK activity, cells were stimulated as appropriate and the reaction terminated by rapid aspiration and the addition of ice-cold PBS. The cells were solubilised in 20 mM HEPES buffer, pH 7.7, containing 50 mM NaCl, 0.1 mM EDTA, 0.1 mM Na3VO4, 0.1 mM PMSF, 10 mg/ml aprotinin, 10 mg/ml leupeptin, and 1% (w/v) Triton X-100. Lysates were clarified by centrifugation for 5 min at 13,000 rpm and equal amounts of protein were incubated with 20 μg of GST-c-Jun-(5–89) immobilized on glutathione-Sepharose at 4 °C for 3 h. […] Phosphorylation of GST-c-Jun was then determined by autoradiography. […]
Fig. 4 Concentration response effects of PAR2 peptides for activation of JNK and inhibition of TNFα-stimulated JNK. PAR2 expressing NCTC2544 cells (clone G) were incubated with increasing concentrations of SLIGKV-OH or 2f-LIGKV-OH for 30 min and assayed for JNK activity (Panel B) or stimulated for a further 30 min with TNFα (+) before JNK activity was assessed (Panel A). Samples were assessed for JNK activity as outlined in the Methods section. Gels from JNK assays were quantified (Panel C). Each value represents the mean ± s.e.m from at least 4 experiments and data was quantified by densitometry.

The subject of a further test is p38 MAP kinase. The conditions noted are these: higher concentrations, ref [37]; cited from earlier work. The text has this: Whilst this present study focuses on two agonist effects it is the first study to raise this potential when examining JNK activation. This model was also supported when examining the effect of the novel PAR2 antagonist K-14585 [33]. […] Taken together, these findings indicate two distinct agonist-directed signalling pathways driven by SLIGKV-OH, one dependent upon ...

Test [5] has as its target T1, human PAR2. Nature of the test: Reversal by PAR2 antagonist of SLIGKV-OH-mediated inhibition of TNFα-stimulated JNK, PAR2 NCTC2544 cells. In kind it is cell-based. The conditions noted are these: 10 μM K14585 30 min, SLIGKV-OH 100 μM 30 min, then TNFα. How it is done:
as §1
(§3) To measure JNK activity, cells were stimulated as appropriate and the reaction terminated by rapid aspiration and the addition of ice-cold PBS. The cells were solubilised in 20 mM HEPES buffer, pH 7.7, containing 50 mM NaCl, 0.1 mM EDTA, 0.1 mM Na3VO4, 0.1 mM PMSF, 10 mg/ml aprotinin, 10 mg/ml leupeptin, and 1% (w/v) Triton X-100. Lysates were clarified by centrifugation for 5 min at 13,000 rpm and equal amounts of protein were incubated with 20 μg of GST-c-Jun-(5–89) immobilized on glutathione-Sepharose at 4 °C for 3 h. Beads were then washed three times in solubilisation buffer and twice in 25 mM HEPES buffer, pH 7.6, containing 20 mM β-glycerophosphate, 0.1 mM NaV3O4, and 2 mM dithiothreitol. Precipitates were then incubated with the same buffer containing 25 μM/0.5 μCi of ATP/[γ-^32P] ATP in a final volume of 30 µl at 30 °C for 30 min. The reactions were terminated by the addition of 4× SDS-sample buffer and aliquots of each sample subjected to electrophoresis on 11% SDS-polyacrylamide gel electrophoresis. Phosphorylation of GST-c-Jun was then determined by autoradiography.
Fig. 3 Inhibition of TNFα-stimulated JNK activity is dependent upon PAR2 activation. […] Samples were assessed for JNK activity or phospho-JNK content as outlined in the Methods section. […]

For test [6], the system named is PKC. Nature of the test: TNFα-stimulated JNK activity, PKC activator / PKC inhibitor, PAR2 NCTC2544 cells. As to conditions: 100 nM PMA 30 min, TNFα 10 ng/ml 30 min. The class given is cell-based, human. Here is the method: as §1, §3
Where experimental data is shown as a blot, this represents one of at least 3 experiments and data represents the mean ± s.e.m. Statistical analysis was by one-way ANOVA with Dunnett's post test (*P < 0.05, **P < 0.01).
Fig. 5 Pharmacological blockade of protein kinase C reverses PAR2 mediated inhibition of TNFα-stimulated JNK activation. PAR2 expressing NCTC2544 cells (clone G) were pre-incubated with increasing concentrations of GF109203X (GFX) for 30 min then incubated for a further 30 min with 100 nM PMA (Panel A) or 30 nM trypsin (Panel B) prior to stimulation for a further 30 min with TNFα(+) (10 ng/ml). Samples were assessed for JNK activity (Panels A and B) or phospho-JNK levels (Panel D) as outlined in the Methods section. Gels from JNK activity assays were quantified by densitometry (Panel C). Each value represents the mean ± s.e.m from at least 4 experiments. ⁎⁎P < 0.01 compared to TNFα and trypsin stimulated.

Test [7] has as its system PKC. Nature of the test: TNFα-stimulated JNK phosphorylation, PKC activator / PKC inhibitor, PAR2 NCTC2544 cells. The class given is cell-based, human. As to conditions: 100 nM PMA. Here is the method: as §1
Proteins were separated by 10% SDS–PAGE and transferred onto nitrocellulose. The membranes were blocked for non-specific binding for 2 h in 2% BSA (w/v) diluted in NATT buffer (50 mM Tris–HCl, 150 mM NaCl, 0.2% (v/v) Tween-20). […]
Fig. 5 Pharmacological blockade of protein kinase C reverses PAR2 mediated inhibition of TNFα-stimulated JNK activation. […] Samples were assessed for JNK activity (Panels A and B) or phospho-JNK levels (Panel D) as outlined in the Methods section. Gels from JNK activity assays were quantified by densitometry (Panel C). […]

The subject of another test is TNFR1. As to conditions: ref [42,50]; cited from earlier work. The text has this: Upon activation TNFR1 associates with a number of proteins including TRADD, RIP, TRAF2, MADD and FADD [46]. Formation of this complex at the membrane allows TNFα to mediate an array of different signalling events, such as induction of apoptosis through the FADD-caspase arm or activation of MAP kinase and NFκB signalling via TRAF2. For example, TRAF2 contains a conserved C-terminal region termed the TRAF domain, which interacts with TRADD and an N-terminal ring finge ...

As to YM254890, in the test with Gq/11 [1], the “inhibition of trypsin and peptide mediated [^3H]IP accumulation” value is “very effective inhibitor”. Besides, the entries for the “reversal of PAR2 mediated inhibition of JNK activity by Gq/11 inhibitor” value in the test with Gq/11 [2] and with Gq/11 [2] (listed as YM25480) were “almost complete abrogation of peptide mediated inhibition; also recorded: complete reversal of PAR2 mediated JNK inhibition” and “reversed PAR2 mediated inhibition”, respectively. Moreover, in the test on Gq/11 [3], the “reversal of PAR2 mediated inhibition of JNK phosphorylation by Gq/11 inhibitor” value was “almost complete abrogation of peptide mediated inhibition of TNFα stimulated JNK phosphorylation”. The “reversal of PAR2 mediated disruption of TNFR1/TRADD complex” value in the test with TNFR1/TRADD is on record as “effectively reversed PAR2 mediated disruption”; in the test with TNFR1/TRADD (listed as YM25480), “reversed”.
In the case of `NCCCC[C@H](NC(=O)CNC(=O)Nc1ccc2c(c1)c(CN1CCCC1)cn2Cc1c(Cl)cccc1Cl)C(=O)N[C@@H](Cc1ccccc1)C(=O)NC(c1ccccc1)c1ccccc1` [K-14585], the “JNK activation by K14585 alone” value at human PAR2 [4] is on record as “able to activate both JNK”. Further, the “p38 MAP kinase activation by K14585 alone” value in the test with p38 MAP kinase is “able to activate both JNK (not shown) and p38 MAP kinase”. The “reversal of SLIGKV-OH-mediated JNK inhibition (words)” value is on record as “able to reverse the inhibition of JNK; also recorded: able to reverse PAR2 mediated inhibition of TNFα signalling” on human PAR2 [5], “inhibition was reversed by pre-incubation” at human PAR2 [5] (listed as K14585) and “reversed” on human PAR2 [5] (listed as K14858).
With `CCCCCCCCCCCCCC(=O)O[C@@H]1[C@@H](C)[C@@]2(O)[C@@H](C=C(CO)C[C@]3(O)C(=O)C(C)=C[C@@H]23)[C@@H]2C(C)(C)[C@]12OC(C)=O` [PMA], in the test with PKC [6], the “effect of PKC activator on TNFα-stimulated JNK activity” value is “mimicked the inhibitory effect of SLIGKV-OH; also recorded: mimic the inhibitory effect of PAR2 activation; also recorded: abolishing both JNK activity and phosphorylation”. Besides, in the test on PKC [7], the “effect of PKC activator on TNFα-stimulated JNK phosphorylation” value was “abolishing both JNK activity and phosphorylation”. Moreover, the “disruption of TNFR1 binding” value in the test on TNFR1 is listed as “disrupt TNFR1 binding”.

These data come from publication PMC2806525, “Proteinase-activated receptor-2 mediated inhibition of TNFα-stimulated JNK activation — A novel paradigm for Gq/11 linked GPCRs” (Cellular Signalling, 2010).
